This is an account of results in patent US20190015423A1, “REGULATION OF GENE EXPRESSION BY MODULATING PRIMARY CILIA LENGTH” (THE TRUSTEES OF COLUMBIA UNIVERSITY IN THE CITY OF NEW YORK, priority 2016, published 2019).

For this assay, the system named is MLO-Y4 osteocytes. Briefly: High-throughput drug screening of primary cilia length and incidence. The assay is classed as cell-based. Particulars: 10 μM, 16 hours, triplicate; normalized to vehicle control; standard deviation away from the population average. As to the method: MLO-Y4 osteocytes were maintained on collagen I-coated dishes in MEMα (Life_Technologies) supplemented with 5% fetal bovine serum (FBS), 5% calf serum (CS), and 1% penicillin/streptomycin (P/S) at 37° C. and 5% CO2. Osteocytes were then seeded onto 384-well collagen-coated plates for 72 hours before fixation. […] These libraries include Tocris, Sigma LOPAC, Selleck Chemical, Prestwick, and Spectrum commercially available compound libraries. All cell seeding and plate handling was performed with the Perkin Elmer cell:explorer workstation.
Cells were fixed in 4% paraformaldehyde and permeabilized with 0.1% Triton-X 100 (Sigma). 10% goat serum (vendor) was used for blocking. Cilia were stained using a monoclonal antibody against acetylated α-tubulin (1:20) from a C3B9 hybridoma cell line, and visualized with A F488 (1:1000, ThermoFisher). Nuclei were visualized with Hoechst. Cells were imaged using a GE INCell 2000 high-throughput imager at 40× magnification. 4 fields of view were taken per well.
Each pair of nuclei and cilia images was first analyzed individually, then the entire population was examined to evaluate each compound's effect on cilia length and incidence. A custom MATLAB script was developed to perform all image analysis. This script first utilizes an enhanced implementation of a watershed transform, which is a segmentation tool which enables detection of similarly shaped overlapping particles in noisy images by the procedural whittling down of pixels found close to the edge of such particles. The augmentation of the algorithm incorporates thresholding for noise removal based on signal intensity and object size, nuclei dilation to exclude non-cellular artifacts, as well as skeletonization of cilia to quantify length. The results of the analysis are number of nuclei, number of cilia, and average cilia length in each image.
Compounds were selected based on deviation from the population mean. Each well was normalized to vehicle control images on each plate, allowing the establishment of a normalized population mean. Hits were chosen based on compounds whose triplicate mean was furthest (based on standard deviation away) from the population mean. […] Compounds were classified based on mechanism of action.
To identify compounds that modulate primary cilia formation a high-throughput platform was developed to automate cell culture, staining, imaging, and analysis, as shown in schematic form in FIG. 18. […] Cells were cultured on 384-well plates, and treated with small molecules with known biologic activity, enabling classification of mechanisms of action. Drug treatment was applied for 16 hours at 10 μM concentration, performed in triplicate, before fixation and immunostaining of primary cilia. Cells were then imaged using the GE INCell 2000 High Content Analyzer, capturing 4 fields of view per well at 40× magnification. Additionally, each plate contains 8 wells of DMSO vehicle control.
A MATLAB script was developed to detect and analyze changes in ciliogenesis. […] A representative exemplary image (FIG. 19A) is cropped to better display features, scale bar represents 30 μm. A custom MATLAB script was used to identify nuclei and cilia for analysis (FIG. 19B). […] Objects are further filtered based on size and signal intensity.
Cilia length and incidence for each field of view were normalized to vehicle control on that individual plate. This allowed development of a normalized population average and standard deviation. […] To control for toxic effects only small molecules with at least 40% viability, based on number of nuclei versus control, were selected as hits. Furthermore, compounds repeated between multiple libraries eliciting the same effect on cilia length or incidence were excluded, such that only one of the repeated compounds was selected as a hit.

Structures can show the parent of a compound that is named as a salt. Where a SMILES comes first, the peptide text is derived from it.

Regarding `CC(C)NCC(O)COc1ccc(CCOCC2CC2)cc1` (stereo not shown) [Betaxolol hydrochloride (Betoptic), Betaxolol hydrochloride], the “Average Incidence SD Away” value came out at 1.631 SD.
In the case of S(−)-Atenolol, the “Average Incidence SD Away” value stood at 2.177 SD and the “Average Length SD Away” value is 2.057 SD.
Regarding `O=C(O)c1nn(Cc2ccc(Cl)cc2Cl)c2ccccc12` [Lonidamine], the “Average Length SD Away” value is reported as 2.357 SD.
Regarding `CN1[C@@H]2CC[C@H]1C[C@@H](OC(=O)C(CO)c1ccccc1)C2` (stereo partly shown) [Atropine], the “Average Incidence SD Away” value stood at 1.694 SD.
Take `CCN[C@H]1C[C@H](C)S(=O)(=O)c2sc(S(N)(=O)=O)cc21` [Dorzolamide HCL]: the “Average Length SD Away” value is 2.205 SD.
Still for that read-out and setting: for `O=C(/C=C/c1ccccc1)c1ccc(O[C@@H]2O[C@H](CO)[C@@H](O)[C@H](O)[C@H]2O)cc1O` [2 4 -DIHYDROXYCHALCONE 4 -GLUCOSIDE] the value was 1.598 SD.
On to `CC(C)c1nc(N(C)S(C)(=O)=O)nc(-c2ccc(F)cc2)c1/C=C/[C@@H](O)C[C@@H](O)CC(=O)O` [Rosuvastatin calcium (Crestor), Rosuvastatin calcium], for which the “Average Incidence SD Away” value was 1.644 SD.
Regarding `O=c1[nH]c(=O)n([C@H]2C[C@H](O)[C@@H](CO)O2)cc1C(F)(F)F` [Trifluridine (Viroptic), Trifluridine], the “Average Incidence SD Away” value is reported as 2.117 SD and the “Average Length SD Away” value turned out to be 1.773 SD.
Turning to `O=C1c2ccccc2C(=O)C1c1ccccc1` [Phenindione (Rectadione), Phenindione], the “Average Incidence SD Away” value is given as 1.688 SD.
With `c1ccc2c(c1)[I+]c1ccccc1-2` [Diphenyleneiodonium chloride], the “Average Length SD Away” value is 2.603 SD.
Take `O=C(NCCO[N+](=O)[O-])c1cccnc1` [Nicorandil (Ikorel), Nicorandil]: the “Average Incidence SD Away” value was found to be 1.556 SD.
With `COc1ccc(C(=O)c2c(C)n(CCN3CCOCC3)c3cc(I)ccc23)cc1` [AM 630], the “Average Length SD Away” value is reported as 1.741 SD.
Still for that read-out and setting: for `NC(=O)c1ccc(N)nc1` [6-AMINONICOTINAMIDE] the value was 2.008 SD.
In the case of `CN(C)CCc1c[nH]c2ccc(C[C@H]3COC(=O)N3)cc12` [Zolmitriptan (Zomig), Zolmitriptan], the “Average Incidence SD Away” value was 1.521 SD.
On the same count and under the same terms, in the case of `CCCCN1CCCCC1C(=O)Nc1c(C)cccc1C` (stereo not shown) [Bupivacaine hydrochloride (Marcain), Bupivacaine hydrochloride] it was 1.827 SD.
As for `CCc1nc(N)nc(N)c1-c1ccc(Cl)cc1` [PYRIMETHAMINE], the “Average Incidence SD Away” value was determined as 1.762 SD and the “Average Length SD Away” value is given as 3.194 SD.
Take `CCCCC/N=c1\ccn(Cc2ccccc2)c2ccccc12` [CP 339818 hydrochloride]: the “Average Length SD Away” value is reported as 1.715 SD.
For `COC(=O)[C@H](Cc1ccccc1)NC(=O)[C@@H](N)CC(=O)O` [Aspartame] (H-Asp-Phe-OMe), the “Average Incidence SD Away” value was determined as 1.732 SD.
For `COc1ccc2oc(-c3ccccc3OC)cc(=O)c2c1` [62 -DIMETHOXYFLAVONE], the “Average Length SD Away” value amounted to 1.745 SD.
Turning to `CCc1c2c(nc3ccc(OC(=O)N4CCC(N5CCCCC5)CC4)cc13)-c1cc3c(c(=O)n1C2)COC(=O)[C@]3(O)CC` [Irinotecan], the “Average Incidence SD Away” value was 1.681 SD and the “Average Length SD Away” value came out at 1.658 SD.
For the compound `C[C@@H](CN1CCC(n2c(=O)[nH]c3cc(Cl)ccc32)CC1)NC(=O)c1ccc2ccccc2c1` [VU 0155069], the “Average Length SD Away” value is 1.618 SD.
Turning to `NC[C@H]1CC[C@H](C(=O)O)CC1` [Tranexamic acid (Transamin), Tranexamic acid], the “Average Incidence SD Away” value is reported as 1.582 SD.
Still for that read-out and setting: in the case of `COC(=O)C1=CO[C@@H](O[C@@H]2O[C@H](CO)[C@@H](O)[C@H](O)[C@H]2O)[C@@H]2C(CO)=CC[C@H]12` [Geniposide] it was 4.335 SD.
For the compound `COc1cc2c(cc1O)CC[C@@H]1[C@@H]2CC[C@]2(C)[C@@H](O)CC[C@@H]12` [2-Methoxyestradiol], the “Average Length SD Away” value is 1.62 SD.
